Literature values, collected in paper PMC5732038 (ACS chemical biology, 2017).

Tested on: methicillin resistant Staphylococcus aureus (MRSA)
Conditions: several Gram-positive bacteria including MRSA

Substance: Sublancin
- antimicrobial activity: antimicrobial activity
